Experiments:
Assay type in all cases: in vivo
Dicotyledoneae [1] = test: Pre-emergence test; conditions: % damage vs untreated control after three weeks, average effect on several dicots
Excerpt: (§1) Zur Herstellung einer zweckmäßigen Wirkstoffzubereitung vermischt man 1 Gewichtsteil Wirkstoff mit der angegebenen Menge Lösungsmittel, gibt die angegebene Menge Emulgator zu und verdünnt das Konzentrat mit Wasser auf die gewünschte Konzentration.
(§2) Samen der Testpflanzen werden in normalen Boden ausgesät und nach 24 Stunden mit der Wirkstoffzubereitung begossen. Dabei hält man die Wassermenge pro Flächeneinheit zweckmäßigerweise konstant. Die Wirkstoffkonzentration in der Zubereitung spielt keine Rolle, entscheidend ist nur die Aufwandmenge des Wirkstoffs pro Flächeneinheit. Nach drei Wochen wird der Schädigungsgrad der Pflanzen bonitiert in % Schädigung im Vergleich zur Entwicklung der unbehandelten Kontrolle.

Mais [2] = test: Pre-emergence test; conditions: % damage vs untreated control after three weeks
Excerpt: as §1, §2

Monocotyledoneae [3] = test: Pre-emergence test; conditions: % damage vs untreated control after three weeks, average effect on several monocots
Excerpt: as §1, §2

Rüben [4] = test: Pre-emergence test; conditions: % damage vs untreated control after three weeks
Excerpt: as §1, §2

Soja [5] = test: Pre-emergence test; conditions: % damage vs untreated control after three weeks
Excerpt: as §1, §2

Dicotyledoneae [6] = test: Post-emergence test; conditions: % damage vs untreated control after three weeks, average effect on several dicots
Excerpt: as §1
(§3) Mit der Wirkstoffzubereitung spritzt man Testpflanzen, welche eine Höhe von 5 - 15 cm haben so, daß die jeweils gewünschten Wirkstoffmengen pro Flächeneinheit ausgebracht werden. Die Konzentration der Spritzbrühe wird so gewählt, daß in 2000 1 Wasser/ha die jeweils gewünschten Wirkstoffmengen ausgebracht werden. Nach drei Wochen wird der Schädigungsgrad der Pflanzen bonitiert in % Schädigung im Vergleich zur Entwicklung der unbehandelten Kontrolle.

Mais [7] = test: Post-emergence test; conditions: % damage vs untreated control after three weeks
Excerpt: as §1, §3

Monocotyledoneae [8] = test: Post-emergence test; conditions: % damage vs untreated control after three weeks, average effect on several monocots
Excerpt: as §1, §3

Rüben [9] = test: Post-emergence test; conditions: % damage vs untreated control after three weeks
Excerpt: as §1, §3

Soja [10] = test: Post-emergence test; conditions: % damage vs untreated control after three weeks
Excerpt: as §1, §3

Testpflanzen [11] = test: Pre-emergence test, overall comparison; conditions: compared with the corresponding racemic compounds (A) and (B)
Excerpt: as §1, §2

Testpflanzen [12] = test: Post-emergence test, overall comparison; conditions: compared with the corresponding racemic compounds (A) and (B)
Excerpt: as §1, §3

SMILES: CCOC(=O)[C@@H](C)OC(=O)c1cc(Oc2ccc(C(F)(F)F)cc2Cl)ccc1[N+](=O)[O-] [(2), 5-(2-Chlor-4-trifluormethyl-phenoxy)-2-nitro-benzoesäure-(1-ethoxycarbonyl-ethyl)-esters]
- Wirkung (in %) Dicotyledoneae (Dicotyledoneae [1]; 0,75 kg/ha): 74,3%
- Wirkung (in %) Mais (Mais [2]; 0,75 kg/ha): 0%
- Wirkung (in %) Monocotyledoneae (Monocotyledoneae [3]; 0,75 kg/ha): 80,7%
- Wirkung (in %) Rüben (Rüben [4]; 0,75 kg/ha): 99%
- Wirkung (in %) Soja (Soja [5]; 0,75 kg/ha): 0%
- Wirkung (in %) Dicotyledoneae (Dicotyledoneae [6]; 0,75 kg/ha): 99,3%
- Wirkung (in %) Mais (Mais [7]; 0,75 kg/ha): 99%
- Wirkung (in %) Monocotyledoneae (Monocotyledoneae [8]; 0,75 kg/ha): 86,3%
- Wirkung (in %) Rüben (Rüben [9]; 0,75 kg/ha): 100%
- Wirkung (in %) Soja (Soja [10]; 0,75 kg/ha): 99%
- herbizide Wirksamkeit (Testpflanzen [11]): bessere herbizide Wirksamkeit
- herbizide Wirksamkeit (Testpflanzen [12]): bessere herbizide Wirksamkeit

SMILES: CCOC(=O)[C@@H](C)OC(=O)c1cc(Oc2c(Cl)cc(C(F)(F)F)cc2Cl)ccc1[N+](=O)[O-] [(1), 5-(2,6-Dichlor-4-trifluormethyl-phenoxy)-2-nitro-benzoesäure-(1-ethoxycarbonylethyl)-esters]
- Wirkung (in %) Dicotyledoneae (Dicotyledoneae [1]; 0,6 kg/ha): 92,7%
- Wirkung (in %) Mais (Mais [2]; 0,6 kg/ha): 10%
- Wirkung (in %) Monocotyledoneae (Monocotyledoneae [3]; 0,6 kg/ha): 79,3%
- Wirkung (in %) Rüben (Rüben [4]; 0,6 kg/ha): 100%
- Wirkung (in %) Soja (Soja [5]; 0,6 kg/ha): 10%
- Wirkung (in %) Dicotyledoneae (Dicotyledoneae [6]; 0,6 kg/ha): 99,3%
- Wirkung (in %) Mais (Mais [7]; 0,6 kg/ha): 80%
- Wirkung (in %) Monocotyledoneae (Monocotyledoneae [8]; 0,6 kg/ha): 81,1%
- Wirkung (in %) Rüben (Rüben [9]; 0,6 kg/ha): 100%
- Wirkung (in %) Soja (Soja [10]; 0,6 kg/ha): 100%
- herbizide Wirksamkeit (Testpflanzen [11]): bessere herbizide Wirksamkeit
- herbizide Wirksamkeit (Testpflanzen [12]): bessere herbizide Wirksamkeit
